Values quoted from earlier work in EP2736496B1, “PHARMACEUTICAL COMPOSITION CONTAINING AN ANTIMUSCARINIC AGENT AND METHOD FOR THE PREPARATION THEREOF” (Pharmathen S.A., priority 2011, dated 2013).
Values after ≈ are worked out from the molar mass of the structure shown.

- water solubility: 12 mg/mL (≈ 36.9 mM)
Compound: Cc1ccc(O)c([C@H](CCN(C(C)C)C(C)C)c2ccccc2)c1 [Tolterodine, (R)-N, N-diisopropyl-3-(2-hydroxy-5-methylphenyl)-3-phenylpropylamine]
